# Where no end group is shown, it is not given here.
# Tests used:
# [1] = system: HCT116 cells; assay: CCK-8 cell viability assay of candidate peptides; assay type: cell-based; conditions: peptide 5 mg/mL, 24 h, CCK-8, absorbance 450 nm, mean ± SEM n = 3, P < 0.01 vs control
# From the text: (§1) After comparing the differential expressed peptides between two treatment groups: chemotherapy alone (n = 5) and chemotherapy combined with Jianpi formula (n = 5). Six candidate peptides were finally screened out, including YP-16 (YGRKKRRQRRR-GPSVP), YP-17 (YGRKKRRQRRR-OLTSGP), YG-22 (YGRKKRRQRRR-DGSPGKDGVRG), YM-22 (YGRKKRRQRRR-LGEAFDGARDM), YP-23 (YGRKKRRQRRR-MEPLGRQLTSGP), and YD-28 (YGRKKRRQRRR-EDPQGDAAOKTDTSHHD). And then, the candidate peptides were synthesized based on their amino acid sequences to evaluate their effects on HCT116 cell viability. Briefly, a total of 1,500 cells per well were seeded in 96-well plates and incubated overnight in a culture medium under appropriate conditions. Following incubation, the cells were treated with indicated peptides (5 mg/mL) at the desired concentrations for 24 h. Cell viability was then assessed using the CCK-8 assay (Dojindo, Japan), following the manufacturer’s instructions. After adding the CCK-8 reagent and incubating for the recommended time, absorbance was measured at 450 nm using a spectrophotometric plate reader (Bio-Tek, United States). Furthermore, HCT116 cells were treated with varying concentrations of YG-22 (0, 2, 4, 6, 8, and 10 mg/mL) for either 24 or 48 h to determine the IC50 values. After the incubation with YG-22 (IC50 concentration) for 48 h, the HCT116 cells were collected for subsequent analyses, including RNA sequencing (RNA-seq) to evaluate gene expression profiles, liquid chromatography-mass spectrometry (LC-MS) for metabolite analysis, assay for transposase-accessible chromatin using sequencing (ATAC-seq) to assess chromatin accessibility, and chromatin immunoprecipitation sequencing (ChIP-seq) to study the H3K4Me3 profiling and NF-κB protein-DNA interactions.
# There were at least three biological replicates, excluding ATAC-seq and ChIP-seq analysis, for each group. Cell viability evaluation data were reported as means ± SEM. Student’s t-test (two-tailed) or one-way ANOVA with Bonferroni’s multiple comparison test were used. P-values of <0.05, or 0.01, or 0.001 were deemed significant.
# [2] = system: NF-κB in HCT116 cells; assay: ChIP-seq of NF-κB binding in YG-22-treated cells; assay type: cell-based, human
# From the text: as §1, with “interactions. […]” for “interactions.”
# Bioinformatics analysis included quality control using FastQC, adapter trimming with fastp, and alignment of clean reads to the human reference genome (hg38) using Bowtie2. […]
# [3] = system: HCT116 cells; assay: Chromatin accessibility analysis (ATAC-seq) of YG-22-treated cells; assay type: cell-based; conditions: HCT116, YG-22 1.769 mg/mL, 48 h
# From the text: as §1, with “After the incubation with YG-22 (IC50 concentration) for 48 h, the HCT116 cells were collected for subsequent analyses, including RNA sequencing (RNA-seq) to evaluate gene expression profiles, liquid chromatography-mass spectrometry (LC-MS) for metabolite analysis, assay for transposase-accessible chromatin using sequencing (ATAC-seq) to assess chromatin accessibility, and chromatin immunoprecipitation sequencing (ChIP-seq) to study the H3K4Me3 profiling and NF-κB protein-DNA interactions.” left out
# [4] = system: HCT116 cells; assay: Metabolomics analysis (LC-MS) of YG-22-treated cells; assay type: cell-based; conditions: HCT116, YG-22 1.769 mg/mL, 48 h
# From the text: as §1
# For metabolomics analysis, treated and control HCT116 cells (1 × 10^5) are collected, washed with cold PBS, and lysed using 80% methanol to extract metabolites. The lysates are centrifuged at 12,000–15,000 × g at 4°C, and the supernatants are stored at −80°C. Metabolite profiling is performed using liquid chromatography-mass spectrometry (LC-MS) with a reverse-phase LC column and gradient elution, followed by high-resolution mass spectrometry in positive and/or negative ion modes. Data preprocessing involves peak detection, alignment, normalization, and filtering using software such as XCMS or Compound Discoverer. Metabolites are identified by matching m/z values, retention times, and fragmentation patterns to databases like HMDB or METLIN, with MS/MS used for structural confirmation. […] The results are visualized with heatmaps, volcano plots, and pathway diagrams, providing insights into metabolic changes induced by treatment.
# [5] = system: H3K4Me3 in HCT116 cells; assay: ChIP-seq H3K4Me3 profiling of YG-22-treated cells; assay type: cell-based, human; conditions: 48 h
# From the text: as §1
# ChIP-seq analysis for H3K4Me3 profiling and NF-κB protein-DNA interactions was conducted using a combination of chromatin immunoprecipitation and high-throughput sequencing. HCT116 cells (5 × 10^6) were fixed with 1% formaldehyde to crosslink proteins and DNA, followed by quenching with glycine and lysis to isolate chromatin. The chromatin was sonicated to fragment DNA, and immunoprecipitation was performed using specific antibodies for H3K4Me3 and NF-κB, coupled with Protein A + G magnetic beads. The immunoprecipitated complexes were reverse crosslinked, and DNA was purified. High-throughput sequencing libraries were prepared through end repair, A-tailing, adapter ligation, and PCR amplification, targeting fragment sizes of 100–300 bp. Sequencing was performed on the Illumina NovaSeq 6,000 platform.
# Bioinformatics analysis included quality control using FastQC, adapter trimming with fastp, and alignment of clean reads to the human reference genome (hg38) using Bowtie2. Peak calling was conducted with MACS2 to identify binding sites and histone modifications, followed by annotation using ChIPseeker. Motif analysis, using MEME and HOMER, identified enriched motifs within peak regions, particularly for NF-κB binding. Functional enrichment analysis was carried out with KEGG pathways to link identified peaks to pathways. Visualization tools, such as heatmaps and Circos plots, were used to highlight binding site distribution and signal enrichment across the genome, providing insights into chromatin modifications and transcription factor interactions under experimental conditions.
# [6] = system: HCT116 cells; assay: Transcriptome analysis (RNA-seq) of YG-22-treated cells; assay type: cell-based; conditions: HCT116, YG-22 1.769 mg/mL, 48 h, treated vs control
# From the text: After comparing the differential expressed peptides between two treatment groups: chemotherapy alone (n = 5) and chemotherapy combined with Jianpi formula (n = 5). Six candidate peptides were finally screened out, including YP-16 (YGRKKRRQRRR-GPSVP), YP-17 (YGRKKRRQRRR-OLTSGP), YG-22 (YGRKKRRQRRR-DGSPGKDGVRG), YM-22 (YGRKKRRQRRR-LGEAFDGARDM), YP-23 (YGRKKRRQRRR-MEPLGRQLTSGP), and YD-28 (YGRKKRRQRRR-EDPQGDAAOKTDTSHHD). And then, the candidate peptides were synthesized based on their amino acid sequences to evaluate their effects on HCT116 cell viability. […] Cell viability was then assessed using the CCK-8 assay (Dojindo, Japan), following the manufacturer’s instructions. After adding the CCK-8 reagent and incubating for the recommended time, absorbance was measured at 450 nm using a spectrophotometric plate reader (Bio-Tek, United States). […]
# For transcriptome analysis, treated and control HCT116 cells (1 × 10^5) are collected, and total RNA is extracted using RNA isolation kit (Qiagen, Germany) following the manufacturer’s instructions. Total RNA samples were prepared with an initial concentration of at least 20 ng/μL and a total quantity of at least 2 μg, ensuring an A260/A280 ratio between 1.9 and 2.1 for quality control. mRNA was isolated using oligo-dT beads to capture polyA-tailed transcripts, followed by thermal fragmentation into 200–300 bp fragments. […]
# [7] = HCT116, YG-22 1.769 mg/mL, ChIP-seq
substance,measurement,setting,value
YGRKKRRQRRR-EDPQGDAAOKTDTSHHD [YD-28],effect on HCT116 cell viability,[1],notably reduced cell viability
YGRKKRRQRRR-OLTSGP [YP-17],effect on HCT116 cell viability,[1],notably reduced cell viability
YGRKKRRQRRRDGSPGKDGVRG [YG-22],effect on HCT116 cell viability,[1],notably reduced cell viability
same,downregulated NF-κB peaks,"[2]; HCT116, YG-22, 48 h, ChIP-seq",36
same,upregulated NF-κB peaks,"[2]; HCT116, YG-22, 48 h, ChIP-seq",26
same,NF-κB peaks in distal intergenic regions,"[2]; HCT116, YG-22-treated, 48 h, control 28.9%",38.4%
same,downregulated differential chromatin accessibility peaks,[3],"1,697"
same,upregulated differential chromatin accessibility peaks,[3],78
same,"downregulated metabolites, negative ion (NEG) mode",[4],127
same,"downregulated metabolites, positive ion (POS) mode",[4],70
same,"upregulated metabolites, negative ion (NEG) mode",[4],121
same,"upregulated metabolites, positive ion (POS) mode",[4],69
same,downregulated differential H3K4me3 peaks,[5]; [7],385
same,upregulated differential H3K4me3 peaks,[5]; [7],97
same,intronic H3K4me3 peaks,"[5]; HCT116, YG-22-treated, control 5.2%",4.5%
same,intergenic H3K4me3 peaks,"[5]; HCT116, YG-22-treated, control 7.1%",6.3%
same,promoter-associated H3K4me3 peaks,"[5]; HCT116, YG-22-treated, control 86.3%",87.8%
same,downregulated genes (DEGs),[6],252
same,upregulated genes (DEGs),[6],236
YGRKKRRQRRR-LGEAFDGARDM (YGRKKRRQRRRLGEAFDGARDM) [YM-22],effect on HCT116 cell viability,[1],notably reduced cell viability

# Reference: article PMC11919836, “Multi-omics analysis reveals Jianpi formula-derived bioactive peptide-YG-22 potentially inhibited colorectal cancer via regulating epigenetic reprogram and signal pathway regulation” (Frontiers in Genetics, 2025)
